Reference: ChEMBL document CHEMBL1781990, “Synthesis and pharmacological activity of O-aminoalkyl derivatives of 7-hydroxycoumarin” (2011)
Converted amounts (≈) assume the structure as drawn. The source made the active and inactive calls. The calls are words filed in the database; no cut-off is given here.

Tests used:
Escherichia coli [1] = experiment: Antibacterial against Escherichia coli ATCC 10536 after 24 hrs by NCCLS M7-A6 method; format: functional; conditions: ATCC 10536, 24 h
Bacillus cereus [2] = experiment: Antibacterial against Bacillus cereus ATCC 11778 after 24 hrs by NCCLS M7-A6 method; format: functional; conditions: Bacillus cereus, ATCC 11778, 24 h; read-out: MIC
Staphylococcus aureus [3] = experiment: Antibacterial against Staphylococcus aureus ATCC 6538P after 24 hrs by NCCLS M7-A6 method; format: functional
Staphylococcus aureus [4] = experiment: Antibacterial against Staphylococcus aureus ATCC 6538 after 24 hrs by NCCLS M7-A6 method; format: functional; conditions: ATCC 6538, 24 h
Bacillus subtilis [5] = experiment: Antibacterial against Bacillus subtilis ATCC 6633 after 24 hrs by NCCLS M7-A6 method; format: functional; conditions: Bacillus subtilis, ATCC 6633, 24 h; read-out: MIC
Micrococcus luteus [6] = experiment: Antibacterial against Micrococcus luteus ATCC 9341 after 24 hrs by NCCLS M7-A6 method; format: functional
HL-60 = experiment: Cytotoxicity against human HL60 cells assessed as cell growth inhibition at 10^-5 M; format: functional, cell-based
786-0 = experiment: Cytotoxicity against human 786-0 cells assessed as cell growth inhibition at 10^-5 M; format: functional, cell-based
Staphylococcus aureus [7] = experiment: Antibacterial against Staphylococcus aureus ATCC 6538 at 20 mg/mL after 24 hrs by NCCLS M7-A6 method; format: functional, organism-based
Escherichia coli [8] = experiment: Antibacterial against Escherichia coli ATCC 10536 at 20 mg/mL after 24 hrs by NCCLS M7-A6 method; format: functional, organism-based
Bacillus cereus [9] = experiment: Antibacterial against Bacillus cereus ATCC 11778 at 20 mg/mL after 24 hrs by NCCLS M7-A6 method; format: functional, organism-based
Escherichia coli [10] = experiment: Antibacterial against Escherichia coli ATCC 8739 at 20 mg/mL after 24 hrs by NCCLS M7-A6 method; format: functional, organism-based
Bacillus subtilis [11] = experiment: Antibacterial against Bacillus subtilis ATCC 6633 at 20 mg/mL after 24 hrs by NCCLS M7-A6 method; format: functional, organism-based
Staphylococcus aureus [12] = experiment: Antibacterial against Staphylococcus aureus ATCC 6538P at 20 mg/mL after 24 hrs by NCCLS M7-A6 method; format: functional, organism-based
Cancer cell lines [13] = experiment: Cytotoxicity against human colon cancer cells assessed as cell growth inhibition at 10^-5 M; format: functional, cell-based
Cancer cell lines [14] = experiment: Cytotoxicity against human ovarian cancer cells assessed as cell growth inhibition at 10^-5 M; format: functional, cell-based
Cancer cell lines [15] = experiment: Cytotoxicity against human renal cancer cells assessed as cell growth inhibition at 10^-5 M; format: functional, cell-based
Cancer cell lines [16] = experiment: Cytotoxicity against human lung cancer cells assessed as cell growth inhibition at 10^-5 M; format: functional, cell-based
Cancer cell lines [17] = experiment: Cytotoxicity against human breast cancer cells assessed as cell growth inhibition at 10^-5 M; format: functional, cell-based
Cancer cell lines [18] = experiment: Cytotoxicity against human prostate cancer cells assessed as cell growth inhibition at 10^-5 M; format: functional, cell-based
Cancer cell lines [19] = experiment: Cytotoxicity against human CNS cancer cells assessed as cell growth inhibition at 10^-5 M; format: functional, cell-based
Melanoma cell = experiment: Cytotoxicity against human melanoma cells assessed as cell growth inhibition at 10^-5 M; format: functional, cell-based
Leukemia cell = experiment: Cytotoxicity against human leukemia cells assessed as cell growth inhibition at 10^-5 M; format: functional, cell-based
Micrococcus luteus [20] = experiment: Antibacterial against Micrococcus luteus ATCC 10240 at 20 mg/mL after 24 hrs by NCCLS M7-A6 method; format: functional, organism-based
Micrococcus luteus [21] = experiment: Antibacterial against Micrococcus luteus ATCC 9341 at 20 mg/mL after 24 hrs by NCCLS M7-A6 method; format: functional, organism-based
[22] = Micrococcus luteus, ATCC 9341, 24 h, read-out: MIC

Compound | MIC (Escherichia coli [1]) | MIC (Bacillus cereus [2]) | MIC (Staphylococcus aureus [3]) | MIC (Staphylococcus aureus [4]) | MIC (Bacillus subtilis [5]) | MIC (Micrococcus luteus [6]; [22]) | Activity (Staphylococcus aureus [7]) | Activity (Escherichia coli [8]) | Activity (Escherichia coli [10]) | Activity (Staphylococcus aureus [12]) | also measured
C[N+](C)(CCOc1ccc2ccc(=O)oc2c1)Cc1ccccc1 | 21.2 mM | 21.2 mM | 21.2 mM | 21.2 mM | 21.9 mM | 1.4 mM | – | – | – | – | –
CC(=O)c1c(OCCN2CCCCC2C)ccc2c(C)cc(=O)oc12 (stereo not given) | 49.2 mM (≈ 16900 µg/mL) | 24.6 mM (≈ 8450 µg/mL) | 24.6 mM (≈ 8450 µg/mL) | 24.6 mM (≈ 8450 µg/mL) | 24.6 mM (≈ 8450 µg/mL) | 12.3 mM (≈ 4220 µg/mL) | – | – | – | – | growth inhibition (GI) (HL-60): Active; growth inhibition (GI) (786-0): Active
Cc1cc(=O)oc2cc(OCCN(C)Cc3ccccc3)ccc12 | – | – | – | – | – | 40.7 mM (≈ 13200 µg/mL) | inactive | inactive | inactive | inactive | Activity (Bacillus cereus [9]): inactive; Activity (Bacillus subtilis [11]): inactive
CCN(CC)CCOc1ccc2c(C)cc(=O)oc2c1C(C)=O.Cl | – | – | – | – | – | – | – | – | – | – | MIC (Micrococcus luteus [6]): 3.5 mM
CCN(CC)CCOc1ccc2ccc(=O)oc2c1 | 16.8 mM (≈ 4390 µg/mL) | 8.4 mM (≈ 2200 µg/mL) | 67.2 mM (≈ 17600 µg/mL) | – | 8.4 mM (≈ 2200 µg/mL) | 8.4 mM (≈ 2200 µg/mL) | inactive | – | – | – | –
Cc1cc(=O)oc2cc(OCC[N+]3(C)CCCCC3C)ccc12 (stereo not given) | – | 45.1 mM | – | – | 22.6 mM | 22.6 mM | inactive | inactive | inactive | inactive | –
CC(=O)c1cc2c(C)cc(=O)oc2cc1OCCN(C)Cc1ccccc1 | 24.3 mM (≈ 8880 µg/mL) | 24.3 mM (≈ 8880 µg/mL) | 24.3 mM (≈ 8880 µg/mL) | 24.3 mM (≈ 8880 µg/mL) | 24.3 mM (≈ 8880 µg/mL) | 1.5 mM (≈ 548 µg/mL) | – | – | – | – | –
Cc1cc(=O)oc2cc(OCCN(C(C)C)C(C)C)ccc12 | 14.7 mM (≈ 4460 µg/mL) | 2.9 mM (≈ 880 µg/mL) | 44.1 mM (≈ 13400 µg/mL) | 44.1 mM (≈ 13400 µg/mL) | 2.9 mM (≈ 880 µg/mL) | 7.4 mM (≈ 2250 µg/mL) | – | – | – | – | growth inhibition (GI) (Cancer cell lines [13]): inactive; growth inhibition (GI) (Cancer cell lines [14]): inactive; growth inhibition (GI) (Cancer cell lines [15]): inactive; growth inhibition (GI) (Cancer cell lines [16]): inactive; growth inhibition (GI) (Cancer cell lines [17]): inactive; growth inhibition (GI) (Cancer cell lines [18]): inactive; growth inhibition (GI) (786-0): inactive; growth inhibition (GI) (Cancer cell lines [19]): inactive; growth inhibition (GI) (Melanoma cell): inactive; growth inhibition (GI) (Leukemia cell): inactive
CC(=O)c1c(OCCN2CCCCC2)ccc2c(C)cc(=O)oc12 | 13 mM (≈ 4280 µg/mL) | 26.1 mM (≈ 8600 µg/mL) | 39.1 mM (≈ 12900 µg/mL) | 39.1 mM (≈ 12900 µg/mL) | 39.1 mM (≈ 12900 µg/mL) | 6.5 mM (≈ 2140 µg/mL) | – | – | – | – | –
CCN(CC)CCOc1ccc2c(C)cc(=O)oc2c1C(C)=O | – | – | – | – | – | – | inactive | inactive | inactive | inactive | Activity (Bacillus cereus [9]): inactive; Activity (Bacillus subtilis [11]): inactive
CC(C)N(CCOc1ccc2ccc(=O)oc2c1)C(C)C | 46 mM (≈ 13300 µg/mL) | 30.7 mM (≈ 8880 µg/mL) | 61.4 mM (≈ 17800 µg/mL) | – | 46 mM (≈ 13300 µg/mL) | 46 mM (≈ 13300 µg/mL) | inactive | – | – | – | –
CC(=O)c1cc2c(C)cc(=O)oc2cc1OCCN1CCCCC1 | 13.3 mM (≈ 4380 µg/mL) | 1.7 mM (≈ 560 µg/mL) | 6.7 mM (≈ 2210 µg/mL) | 13.3 mM (≈ 4380 µg/mL) | 1.7 mM (≈ 560 µg/mL) | 1.7 mM (≈ 560 µg/mL) | – | – | – | – | –
CC(=O)c1c(OCCN(C(C)C)C(C)C)ccc2c(C)cc(=O)oc12 | – | – | – | – | – | 25 mM (≈ 8640 µg/mL) | inactive | inactive | inactive | inactive | Activity (Bacillus cereus [9]): inactive; Activity (Micrococcus luteus [20]): inactive; Activity (Bacillus subtilis [11]): inactive
CCN(CC)CCOc1ccc2c(C)cc(=O)oc2c1 | 8 mM (≈ 2200 µg/mL) | 2 mM (≈ 551 µg/mL) | 32.1 mM (≈ 8840 µg/mL) | 32.1 mM (≈ 8840 µg/mL) | 2 mM (≈ 551 µg/mL) | 2 mM (≈ 551 µg/mL) | – | – | – | – | –
O=c1ccc2ccc(O)cc2o1 | – | – | – | – | – | – | inactive | inactive | inactive | inactive | Activity (Bacillus cereus [9]): inactive; Activity (Micrococcus luteus [21]): inactive; Activity (Micrococcus luteus [20]): inactive; Activity (Bacillus subtilis [11]): inactive
CC(=O)c1c(O)ccc2c(C)cc(=O)oc12 | – | 22.9 mM (≈ 5000 µg/mL) | – | 68.7 mM (≈ 15000 µg/mL) | 45.8 mM (≈ 9990 µg/mL) | 68.7 mM (≈ 15000 µg/mL) | – | inactive | inactive | inactive | –
